Structures are written as SMILES.

From patent US20100143313A1, “HOMOGENEOUS DIFFERENTIATION OF HEPATOCYTE-LIKE CELLS FROM EMBRYONIC STEM CELLS” (THE GENERAL HOSPITAL CORPORATION, priority 2008, published 2010) come the findings set out here.

Common to all, as to type: cell-based, murine
For data set [1], the system named is ESDE cells. The experiment in a line: Albumin secretion of ESDE cells into culture media (ELISA). Particulars: DMSO induction, low glucose. The method, then: (§1) FIGS. 3A and 3B are bar graphs showing albumin and urea secretion rates of hepatocyte-like cells. Albumin secretion was measured at various timepoints by ELISA (3A). Urea secretion was measured with a colorimetric assay (3B). […] Urea and albumin secretion rates increased up to forty days of culture. […] Values represent mean±SD of two experiments and repeated in triplicate.
(§2) The maturation of ESDE cells into functional hepatocytes was evaluated by measuring the secretion of albumin and urea into the culture media (FIG. 3). […] Neither albumin nor urea secretion was detectable before day twenty in any of the other conditions tested.
(§3) At day fourteen of culture, the ES cells were stimulated with the chemical agonists listed on Table 1 (above) in high glucose or low glucose DMEM supplemented with 10% FBS and 0.2 μM dexamethasone. The media with chemical agonists were exchanged every other day until day twenty. At day twenty of culture, the ES cells were cultured without the chemical agonists in high glucose or low glucose DMEM supplemented with 10% FBS and 0.2 μM dexamethasone. […]
(§4) Collected medium samples were analyzed for secreted concentrations of mouse albumin by ELISA. […] Urea content was determined with diacetyl monoxime using a commercially available kit (StanBio Laboratory, Boerne, Tex.). The absorbance was measured with a Thermomax microplate reader (Molecular Devices, Sunnyvale, Calif.).

The test system of data set [2] is ESDE cells. The experiment in a line: Urea secretion of ESDE cells into culture media (colorimetric assay). Particulars: DMSO-stimulated ESDE cells. The method, then: as §1, §2, §3, §4
Data set [3] relates to cytochrome P450 activity (CYP1A1). The data set can be described thus: EROD assay for inducible cytochrome P450 activity. To be noted: two-day exposure to 3-methylcholanthrene, day 36.
Description: Day-thirty-four ES-derived cells were stimulated with 2 mM 3-methycholanthrene (3-MC) for two days. The conversion of ethyoxyresorufin to fluorescent resorufin was assayed on day thirty-six of culture. Values represent mean±SEM of three experiments and repeated in duplicate.
The EROD assay was used to measure inducible cytochrome P450 activity (CYP1A1) of the hepatocyte-like cells.
The drug metabolizing activity of the ES cell-derived hepatocytes were evaluated using an ethoxyresorufin 0-de-ethylase (EROD) assay. Day thirty-four ES cells were stimulated with 2 mM 3 methycholanthrene (3-MC) for two days. On day 36, the media was replaced with 10 μM ethoxyresorufin (Invitrogen) and 80 μM dicumarol (Sigma) in Earle's Balanced Salt Solution. Solution samples were collected at 5, 15, 25, and 35 minutes after the introduction of substrates. The increase in fluorescence intensity caused by conversion of ethyoxyresorufin to fluorescent resorufin estimates the CYP1A1 activity in hepatocytes.
In data set [4] the test system is ESDE cells. The data set can be described thus: RT-PCR gene expression of ESDE cells after agonist induction. Particulars: for Transcriptional expression of tyrosine aminotransferase (Tat) / expression of albumin (Alb) and cytochrome P450 subunit 3a13 (Cyp3a13) mRNA: RT-PCR; for Transcriptional expression of tyrosine aminotransferase (Tat): over culture time; for expression of albumin (Alb) and cytochrome P450 subunit 3a13 (Cyp3a13) mRNA: day twenty-two, increased at day thirty. The method, then:
Similarly, glucose-6-phosphatase (G6pc) mRNA expression could only be detected with DMSO or RA stimulation. […] Visceral endoderm marker Sox7 was also weakly expressed in every condition except with DMSO induction.
At day fourteen of culture, the ES cells were stimulated with the chemical agonists listed on Table 1 (above) in high glucose or low glucose DMEM supplemented with 10% FBS and 0.2 μM dexamethasone. The media with chemical agonists were exchanged every other day until day twenty. At day twenty of culture, the ES cells were cultured without the chemical agonists in high glucose or low glucose DMEM supplemented with 10% FBS and 0.2 μM dexamethasone. The ES cells were cultured up to day fifty with media exchange every other day.
RNA isolation was performed using the Nucleospin RNAII protocol (Clontech, Mountain View, Calif., USA). Following the removal of genomic DNA with DNase, the column was washed and RNA was eluted with distilled water. The RNA purity was quantified using the absorbance ratio at 260 nm (nucleic acids) and 280 nm (protein) and was greater than 1.9. One-Step RT-PCR kit (Qiagen, Valencia, Calif., USA) was used to analyze gene expression. Reactions were initiated using 10 ng RNA and 0.6 μM primer. RT reaction was conducted at 50° C. and 95° C. for 15 min. Three-step cycling was performed: denaturation at 94° C. for 30 s, annealing at 55° C. for 30 s, and extension at 72° C. for 1 min, with a final extension time of 10 min at 72° C. The number of cycles varied between 30 and 35. Following PCR, samples were run on a 2% agarose gel, stained with ethidium bromide, and imaged using the Fluor-X Multiimager (Bio-Rad, Hercules, Calif., USA). Mouse liver total RNA (Ambion, Austin, Tex., USA) was used as a control for hepatocyte gene expression. Markers: Foxa2, AFP, Sox 17, Albumin, GATA1, Runx2, Foxf1, NKx2.5, Tal1, Pax 6, AAT, CK8, CK18, TTR, CYP3A13, Brachyury, Goosecoid, β-actin.

The subject of data set [5] is ESDE cells. The data set can be described thus: Glycogen staining (periodic acid-Schiff). To be noted: after thirty-two days of differentiation. The method, then: Rat primary hepatocytes are capable of secreting albumin at a rate of approximately 2.0 μg/hour/10^6 cells, and the mouse hepatocarcinoma cell line Hepal-6 can produce albumin at a rate of 4.7 μg/hour/10^6 cells. The ability of the ES-derived hepatocyte-like cells to produced and store glycogen was assessed using a periodic acid-Schiff stain. […] The capacity for the hepatocyte-like cells to actively synthesize glycogen was seen after the culture media was switched from the low-glucose differentiation media to high-glucose DMEM supplemented with 10% FBS and 0.2 μM dexamethasone for two days. More intense magenta staining of the hepatocyte-like cells was found after the two-day incubation in high-glucose media.
Periodic acid-Schiff staining kit was purchased from Sigma. Cells were fixed with 4% paraformaldehyde in PBS for 20 minutes at room temperature. Staining procedures were performed according to manufacturer's instruction.

The test system of data set [6] is albumin promoter-driven GFP expression in ES-derived endoderm (ESDE) cells. The experiment in a line: Screening of agonists for albumin promoter-driven GFP expression in ES-derived endoderm (ESDE) cells, flow cytometry. To be noted: agonist d14-d20, 2% DMSO, 1 μM Azacytidine, 1 μM Retinoic Acid, 100 μM SNAP, 1 μM A23187, 1 nM vasopressin, 200 μM IBMX, 2 mM phenobarbital, 10 mM nicotinamide, 0.1 μM PGE2; for Cell fraction of day 30 ES-derived cells positive for albumin promoter-driven GFP expression, High Glucose: high glucose DMEM; for Cell fraction of day 30 ES-derived cells positive for albumin promoter-driven GFP expression, Low Glucose: low glucose DMEM. Here is the method: A transgenic ES cell for enhanced green fluorescence protein (GFP) driven by the albumin promoter was used or the purpose of quickly screening different stimulants for hepatic differentiation. After a total of 30 days of differentiation, the various agonists were evaluated for their ability to induce ES-derived endoderm (ESDE) to express the albumin gene. When the ESDE cells were cultured in high glucose conditions, none of the agonists tested were able to increase cell population fraction positive for GFP expression over 10% (Table 1):
Additionally, for the purpose of quickly screening different stimulants for hepatic differentiation, a transgenic ES cell for enhanced green fluorescence protein (GFP) driven by the albumin promoter was used for these preliminary studies. The transgenic murine J1 cell line was obtained from the National Cancer Center Research Institute (Tokyo, Japan). The murine ES cell line D3 (ATCC, Manassas, Va.) was also used to assess the differentiation of ES cells into endoderm and hepatic lineage cells. Undifferentiated ES cells were cultured in Knockout DMEM (Gibco), supplemented with 15% replacement serum, 4 mM L-glutamine (Gibco), 100 U/mL penicillin (Gibco), 100 U/ml streptomycin (Gibco), 10 μg/mL gentamycin (Gibco), 1000 units/mL Leukemia Inhibitory Factor (LIF; Chemicon International, Temecula, Calif.), and 0.1 mM 2-mercaptoethanol (Gibco) on 0.1% gelatin-coated T-75 tissue culture flasks. Culture medium was replaced every day and cells were passaged at dilutions ranging from 1:5 to 1:20 at least once a week. Cells were cultured at 37° C. and in a 5% CO2 incubator.
To isolate the ES-derived cells in co-culture, the ES cells cultured on top of collagen sandwiched hepatocytes were incubated with dispase (1 mg/mL) (Gibco) for 30-60 min at 37° C. After incubation, the ES-derived cells were detached by gentle pipetting. The collagen-sandwiched hepatocytes remained at the bottom of the dish, thus allowing separation of the ES-derived cells from the primary hepatocytes. The isolated ES-derived cells were replated (day 10) on collagen gel coated 35-mm dishes at a density of 400,000 ES-derived cells per dish and cultured in high glucose DMEM supplemented with 10% FBS, 100 ng/mL oncostatin-M (Sigma), 0.2 μM dexamethasone (Sigma), and insulin/transferrin/selenious acid (5 μg/mL, 5 μg/mL, 5 ng/mL, respectively) (BD Biosciences, San Jose, Calif.). The replated cells were allowed to recover for four days before induction of hepatocyte differentiation. […]
Alternatively, Cells were detached from the collagen surface using 10 U/ml collagenase and 1 U/ml dispase in serum-free DMEM for 30 minutes. […] Collected cells were analyzed by flow cytometry (Epics Altra; Becton Dickinson). FACS data was analyzed using CellQuest software. […]
Background: Flow cytometry measures light scatter and fluorescence of single cells or particles in a stream.

In the data set with ESDE cells [1] (day forty), `C[S+](C)[O-]` [DMSO, Dimethyl sulfoxide] returned an albumin secretion rate of 3.09 μg/hour/10^6 cells. Moreover, the albumin secretion rate in the data set on ESDE cells [1] (day twenty-two) is 0.34 μg/hour/10^6 cells. This compound returned a urea secretion rate in the data set on ESDE cells [2] (day 22) of 0.36 μg/hour/106 cells. In the data set with ESDE cells [2] (day forty), this compound registered a urea secretion rate of 2.45 μg/hour/10^6 cells. In addition, in data set [3], the “EROD activity compared to cells cultured in high glucose media without DMSO stimulation” value is given as 20 fold and the “EROD activity over cells cultured in low glucose media without DMSO stimulation” value is 4.5 fold. Further, in the data set with ESDE cells [4] (RT-PCR after induction), the “Definitive endoderm marker Sox17 expression” value was “down-regulated” and the “glucose-6-phosphatase (G6pc) mRNA expression” value is given as “detected”. Also, in the data set on ESDE cells [4], the “Transcriptional expression of tyrosine aminotransferase (Tat)” value was “highest at day thrity”; the “expression of albumin (Alb) and cytochrome P450 subunit 3a13 (Cyp3a13) mRNA” value is listed as “could be detected by day twenty-two”. Further, in the data set with ESDE cells [5], the “glycogen stores (periodic acid-Schiff stain)” value is reported as “visible glycogen stores”.

Regarding `CCCCC[C@H](O)/C=C/[C@H]1[C@H](O)CC(=O)[C@@H]1C/C=C\CCCC(=O)O` [PGE2, prostaglandin E2], in data set [6], the “Cell fraction of day 30 ES-derived cells positive for albumin promoter-driven GFP expression, High Glucose” value came to 7.8% and the “Cell fraction of day 30 ES-derived cells positive for albumin promoter-driven GFP expression, Low Glucose” value came out at 57%.

On to `CC1=C(/C=C/C(C)=C/C=C/C(C)=C/C(=O)O)C(C)(C)CCC1` [Retinoic Acid, all-trans retinoic acid], for which, in the data set with ESDE cells [4] (RT-PCR after induction), the “glucose-6-phosphatase (G6pc) mRNA expression” value is listed as “detected”. In the data set with ESDE cells [4], the “Transcriptional expression of tyrosine aminotransferase (Tat)” value is given as “highest at day thrity”; the “expression of albumin (Alb) and cytochrome P450 subunit 3a13 (Cyp3a13) mRNA” value is listed as “could be detected by day twenty-two”.

For `NC(=O)CC[C@@H]1NC(=O)[C@H](Cc2ccccc2)NC(=O)[C@H](Cc2ccc(O)cc2)NC(=O)[C@@H](N)CSSC[C@@H](C(=O)N2CCC[C@H]2C(=O)N[C@@H](CCCN=C(N)N)C(=O)NCC(N)=O)NC(=O)[C@H](CC(N)=O)NC1=O` [vasopressin], in data set [6], the “Cell fraction of day 30 ES-derived cells positive for albumin promoter-driven GFP expression, High Glucose” value is 4.5% and the “Cell fraction of day 30 ES-derived cells positive for albumin promoter-driven GFP expression, Low Glucose” value is listed as 59%.
